Literature values, collected in patent publication US20260207586A1, “PHARMACEUTICAL COMPOSITION COMPRISING LURBINECTEDIN, PREPARATION METHOD THEREFOR, AND USE THEREOF” (BrightGene Bio-Medical Technology Co., Ltd., priority 2022, published 2026).

COc1ccc2[nH]c3c(c2c1)CCN[C@]31CS[C@@H]2c3c(OC(C)=O)c(C)c4c(c3[C@H](COC1=O)N1[C@@H]2[C@H]2c3c(cc(C)c(OC)c3O)C[C@@H]([C@@H]1O)N2C)OCO4 [Lurbinectedin]
Solubility in water: limited | Storage time under refrigeration (5° C.): 1 month | Stability at room temperature (25° C.): rapidly degraded
